The test system of one series is fibrocystic disease. The following applies: human, in vivo; cited from earlier work.
Series [1] relates to breast tissue from a female rat on an iodine deficient diet. Description: Carcinogen added to iodine deficient rat model (FIG. 6). It counts as in vivo. The following applies: iodine deficient diet (FIG. 6). The text has this:
This finding is supportive of the inventors' contention that fibrocystic disease enhances the risk of breast cancer causing sensitization of the breast tissue to various stimuli, including carcinogens. This sensitization process may explain the increased incidence of breast cancer in women in areas of deficient iodine intake, reported by Moosa et al. in "Thyroid Status and Breast Cancer", Royal College of Surgeons, England, 53, 1975.

The next series has as its system endometriosis. Description: Example 6: Treatment of endometriosis with iodine. It is filed as in vivo, human. An excerpt: An effective dose of elemental iodinte (I2) to cause such a subsidence of nodularity is about 1 to 20 milligrams per day. A daily dosage of elemental iodine for the treatment of endometriosis of about 3 milligrams to about 6 milligrams is also useful. The daily dosage can be administered in an aqueous solution containing about 0.30 milligrams of elemental iodine per millilitre of solution.
Two patients, both with a diagnosis of endometriosis and both treated with birth control pills previously with little result, were treated with diatomic iodine for 10 and 18 months, respectively.

The test system of a further series is breast cancer. Description: Example 5: Incidence of breast cancer in women treated with elemental iodine. The conditions noted are these: comparison with published series. It is filed as in vivo, human (women). The text has this:
The incidence of breast cancer in women treated with elemental iodine was compared with other published results, namely the results as published by the Ontario Cancer Research, and results published by Spratt.

Series [2] deals with DMBA-induced mammary gland neoplasia. Description: Example 4: Iodine treatment of induced breast tumors in rats. It counts as in vivo, rat. An excerpt: DMBA, a carcinogen, causes mammary gland neoplasia in rats. If these tumors contain breast peroxidase, tney respond to iodine and estrogen treatment. However, as the tumors become less responsive to iodine (hormone independent), breast peroxidase is found to be lacking.

The test system of series [3] is DMBA-induced mammary tumors. Description: Dimethylbenzanthracene studies: mean tumor volume in DMBA treated rats. It counts as in vivo, Sprague-Dawley virgin female rats. The following applies: for Mean Tumor Volume, Exp. / Mean Tumor Volume, Week 10 / Mean Tumor Volume, Week 12 / Mean Tumor Volume, Week 14 / Mean Tumor Volume, Week 16 / Mean Tumor Volume, Week 18 / Mean Tumor Volume, Week 20 / Mean Tumor Volume, Week 22: DMBA treated rats, in mm³ (unit assumed). Here is the method:
After adequate orientation of 48 hours, 80 Sprague-Dawley virgin female rats (A.A.I., PA) of 100-124 grams and approximately 37 days old, were divided randomly into eight groups each containing 10 rats. The animals were identified according to their phase, group, and rat numbers. The eight groups were labelled as Groups, IA1, IA2, IB1, IB2, IIA1, IIA2, IIB1, and IIB2. Each rat was weighed and marked for identification. Ear identification were as follows:
Group I was initially fed a normal diet and provided with double distilled drinking water (Ionics and IWT). Group II was initially fed a Remington iodine-deficient diet (Teklad, WI) during which they received double distilled drinking water.
At the end of fourteen days, and at 50-56 days old, groups I and II were divided into groups A and B. Groups IA and IIA were treated with 15 mg 7,12 Dimethylbenzanthracene (Eastman Kodak, NY) dissolved in 1 ml sesame oil by gavage. Groups IB and IIB were given a sham feeding of 1 ml of sesame oil at this time also. Only 10 rats a day were given this treatment. For the first twelve hours after treatment, the rats were housed in the fume hood and then taken to the Animal House where they were placed in the same room as groups IB and IIB. The rats in groups IA and IIA continued to be fed a normal diet and iodine-deficient diet, respectively. Groups IB and IIB also continued to receive their respective diets.
The following phases received iodine replacement therapy at these times:
Phase 1--at time of initial feeding of Remington diet
Phase 2--at time of DMBA pulse
Phase 3--at 10 days after DMBA treatment
Groups IA1, IB1, IIA1, and IIB1 received 2.67 ml/1000 ml dilution of a 0.3 mg/ml "mother" iodine concentrate for the rest of the experiment. The technique for making the iodine solution was as follows:
4) A second container was used to measure 2.67 ml of concentrate to 1000 ml DD H2 O. This dilution was then used as drinking water for the animals.
This daily dosage corresponds to the rats receiving 0.07-0.09 mg per kilogram body weight. The other groups continued to receive double distilled drinking water. Thus, the groups were arranged in the following order:
Palpations of the breasts were performed twice a week for the first 30 days after pulse DMBA was administered. The masses, if any, were drawn, measured by caliper, described as to consistency and freedom of motion, and all observations were recorded. After 30 days, the above observations were taken (including framing of tumor if larger than 5 mm) every 2 days and recorded.
Group 1, which was initially fed a normal diet, and Group 2 which was initially fed a Remington iodine deficient diet. Within the two groups are four subgroups, phases 1, 2 and 3, and a control. Phase 1 received iodine replacement therapy at the time of the initial feeding of either the Remington diet or the normal diet. Phase 2 received iodine replacement therapy at the time of DMBA treatment. Phase 3 received iodine replacement therapy 10 days after DMBA treatment.
*Volumes were calculated using the formula 4/3 ((L + W) .div. 2)
All measurements were recorded in centimeters designating the greatest

The next series concerns breast estrogen receptor. Description: Breast estrogen receptor activity and iodine. Set-up: species or system rat. An excerpt:
The biochemical pathway seems to be an intracellular attraction by iodine for estrogen receptors. […] Thus, cell metabolism is altered when there is "inadequate" iodine present.
A characteristic of breast cancer is the change in response to estrogen and estrogen receptor variability.

The test system of another series is dysplastic mastodynia. The following applies: women with dysplastic mastodynia; cited from earlier work.
For series [4], the system named is breast tissue from a female rat on an iodine deficient diet. Description: Iodine replacement therapy in iodine deficient rats, morphology of breast tissue. It counts as in vivo. The text has this:
Studies on rats have included iodine replacement therapy in animals made iodine deficient by a Remington iodine-free diet.
The first iodine product used in the reversal experiment was sodium iodide.
FIG. 1 is a photomicrograph of the breast tissue of a human.
Biological Trace Element Research, Volume 5, 1983, 399-412. The material disclosed in these articles is incorporated herein by reference.
This deficiency can be obtained either through the use of an iodine deficient diet and/or through perchlorate treatment.

Series [5] has the same test system. The conditions noted are these: Remington iodine-free diet; iodide salts in food, normal and excessive levels; cited from earlier work.
Setting [6] is: Group I, Normal Diet, Iodine Phase I.
Where [7] appears, read: Group I, Normal Diet, Iodine Phase II.
Setting [8] is: Group I, Normal Diet, Iodine Phase III.
Setting [9] is: Group II, ID (iodine-deficient) Diet, Iodine Phase I.
[10] abbreviates: Group II, ID (iodine-deficient) Diet, Iodine Phase II.
Where [11] appears, read: Group II, ID (iodine-deficient) Diet, Iodine Phase III.

“Also recorded” adds a separate entry of the source. Like-named read-outs stand apart in the source and are kept apart here.

These results are taken from US6019970A, “Treatment of iodine deficiency diseases” (priority 1997, dated 2000).

With `C#C[C@]1(O)CC[C@H]2[C@@H]3CCC4=Cc5oncc5C[C@]4(C)[C@H]3CC[C@@]21C` [danazol], the “side effects in treatment of mammary dysplasia” value in the series with fibrocystic disease is reported as “massive side effects”.

As to `Cc1c2ccccc2c(C)c2c1ccc1ccccc12` [dimethyl benzanthracene, 7,12 Dimethylbenzanthracene], the “progression of fibrocystic dysplasia” value in series [1] was “progression from the benign state of fibrocystic dysplasia to overt malignancy”.

Consider `II` [elemental iodine, diatomic iodine], for which the “nodularity of pelvic peritoneum” value in the series with endometriosis (about 1 to 20 milligrams per day) is listed as “subsidence of the nodularity of the patient's pelvic peritoneum”. For the same compound, the “overall response to iodine treatment, series of patients” value with endometriosis (no other medication during trial therapy) is given as “This series of patients has responded”. Moreover, in the series on endometriosis (third patient), the “effect of stopping medication” value is “asymptomatic for two cycles, and then their pain returned”; the “pelvic pain and nodularity on treatment” value is “within two cycles, with complete relief of pelvic pain and improvement in the pelvic nodularity on rectal examination”. For the same compound, in the series on endometriosis (three patients treated for fibrocystic breast dysplasia), the “cyclic lower abdominal pain” value is reported as “coincident dramatic decrease in their cyclic lower abdominal pain”. In addition, in the series on endometriosis (two patients), the “effect of restarting medication” value is “The subjective symptoms and physical findings again improved within one cycle”; the “effect of stopping medication” value is given as “within one cycle, they had severe pain again, with increasing nodularity of the pelvic peritoneum on rectal examination”. The pain on treatment entry in the series on endometriosis (two patients, 10 and 18 months) was “complete amelioration of their pain within one cycle of starting the medication”. For the same compound, in the series with breast cancer, the “incidence of breast cancer versus women not so treated” value is “less than the incidence of breast cancer in women who had not been so treated”. Also, in series [2] (about 0.5 mg per 100 gm body weight, orally or intraperitoneally, preliminary), the tumor response entry is “more response to both diatomic iodine and estrogen”. Also, in series [3] (setting [6]), the “Mean Tumor Volume, Exp.” value is recorded as 320.524; the “Mean Tumor Volume, Week 10” value is reported as 15.191; the “Mean Tumor Volume, Week 12” value came to 53.565; the “Mean Tumor Volume, Week 14” value is on record as 67.739. Further, in [3] (setting [6]), the “Mean Tumor Volume, Week 16” value worked out at 97.979; the “Mean Tumor Volume, Week 18” value is 136.405; the “Mean Tumor Volume, Week 20” value is 155.904; the “Mean Tumor Volume, Week 22” value worked out at 214.962. Further, in series [3] (setting [7]), the “Mean Tumor Volume, Exp.” value was found to be 534.001; the “Mean Tumor Volume, Week 10” value came to 7.603; the “Mean Tumor Volume, Week 12” value was determined as 57.853; the “Mean Tumor Volume, Week 14” value came out at 106.887. In [3] (setting [7]), the “Mean Tumor Volume, Week 16” value is listed as 140.751; the “Mean Tumor Volume, Week 18” value was determined as 216.033; the “Mean Tumor Volume, Week 20” value came to 247.025; the “Mean Tumor Volume, Week 22” value came out at 320.468. Moreover, in series [3] (setting [8]), the “Mean Tumor Volume, Exp.” value is recorded as 392.61; the “Mean Tumor Volume, Week 10” value is 6.686; the “Mean Tumor Volume, Week 12” value came to 24.079; the “Mean Tumor Volume, Week 14” value was determined as 75.421. Moreover, in series [3] (setting [8]), the “Mean Tumor Volume, Week 16” value was determined as 90.319; the “Mean Tumor Volume, Week 18” value is given as 127.529; the “Mean Tumor Volume, Week 20” value was 184.717; the “Mean Tumor Volume, Week 22” value stood at 319.229. Also, in series [3] (setting [9]), the “Mean Tumor Volume, Exp.” value amounted to 337.516; the “Mean Tumor Volume, Week 10” value turned out to be 4.048; the “Mean Tumor Volume, Week 12” value was 23.367; the “Mean Tumor Volume, Week 14” value came out at 65.244. In addition, in series [3] (setting [9]), the “Mean Tumor Volume, Week 16” value came out at 119.156; the “Mean Tumor Volume, Week 18” value is on record as 155.189; the “Mean Tumor Volume, Week 20” value is given as 174.49; the “Mean Tumor Volume, Week 22” value came to 238.883. Moreover, in [3] (setting [10]), the “Mean Tumor Volume, Exp.” value is 613.044; the “Mean Tumor Volume, Week 10” value is 0.216; the “Mean Tumor Volume, Week 12” value was 54.934; the “Mean Tumor Volume, Week 14” value is on record as 111.962. Moreover, in series [3] (setting [10]), the “Mean Tumor Volume, Week 16” value came out at 168.475; the “Mean Tumor Volume, Week 18” value turned out to be 269.008; the “Mean Tumor Volume, Week 20” value stood at 401.774; the “Mean Tumor Volume, Week 22” value is given as 519.122. Also, in series [3] (setting [11]), the “Mean Tumor Volume, Exp.” value was 500.435; the “Mean Tumor Volume, Week 10” value was determined as 5.816; the “Mean Tumor Volume, Week 12” value was 36.68; the “Mean Tumor Volume, Week 14” value came out at 81.81. In series [3] (setting [11]), the “Mean Tumor Volume, Week 16” value stood at 177.888; the “Mean Tumor Volume, Week 18” value came to 203.824; the “Mean Tumor Volume, Week 20” value is given as 356.807; the “Mean Tumor Volume, Week 22” value turned out to be 393.328. Also, the “mean tumor volume, in words” value in [3] (pretreatment before DMBA, versus nontreated controls) was “reduction of mean tumor volume as compared to the nontreated controls; also recorded: reduced the mean tumor volume in the DMBA treated rats”. In addition, the “breast estrogen receptor activities after iodine replacement” value in the series with breast estrogen receptor (iodine deficiency) is “disappears upon iodine replacement”. For the same compound, in the series with breast estrogen receptor (rats), the “role in estrogen receptor function” value was “necessary for normal estrogen receptor function in rats”.

On to `[O-][Cl+3]([O-])([O-])O` [perchlorate, reference compound], for which the “effect on tumorigenesis and iodide therapy” value in series [2] (peroxidase-blocking agent) was “increases the tumorigenesis and the effectiveness of iodide therapy”.

`[I-].[K+]` [potassium iodide, reference compound]: in the series with dysplastic mastodynia, the improvement rate is recorded as 71%. For the same compound, in [4], the “reversal of pathological changes / tissue morphology of rat breast after iodine replacement” value was “only minimal success”.

Regarding `[I-].[Na+]` [sodium iodide, reference compound], in series [5], the “breast dysplasia after iodine replacement” value is “the breast dysplasia appeared to abate with a partial subsidence of epithelial hyperplasia and a loss of cystic spaces but with a continuation of the fibrosis of the syndrome”. For the same compound, the “reversal of pathological changes / tissue morphology of rat breast after iodine replacement” value in [4] was “reversal of the pathological changes to a degree with the partial subsidence of cyst formation, epithelial hyperplasia and fibrosis. The interacinar fibrosis remained”; in series [4] (listed as sodium iodide (NaI)) it was “only minimal success”; in series [4] (listed as sodium iodine), “The epithelial hyperplasia regressed and the cystic spaces disappeared, but the fibrous tissue remained”.
